Results from US20140294925A1 (priority 2013, published 2014).
≈ marks a conversion by molar mass, not a printed value. Where two headings read alike, the source gives them in different places.

Legend:
[1] = system: Enterococcus faecium ATCC700221 (VRE); experiment: MIC/FIC/FICI determination, MHB broth microdilution (CLSI M07-A9); format: cell-based; conditions: single compound
[2] = system: Staph. aureus ATCC700787 (MRSA/VISA); experiment: as above; format: cell-based; conditions: Staphylococcus aureus
[3] = system: Staph. aureus ATCC29213 (semi-resistant); experiment: MIC determination, MHB broth microdilution (CLSI M07-A9); format: cell-based; conditions: Staphylococcus aureus
[4] = rat, in vivo; cited from earlier work
[5] = rat, in vivo, topical or ocular; cited from earlier work
[6] = system: VRSA (vancomycin-resistant Staphylococcus aureus); conditions: cited from earlier work

Question: Which MIC ([1]; 24 hours exposure) does the source give for CCCCCCCCCC(=O)N[C@@H](Cc1c[nH]c2ccccc12)C(=O)N[C@H](CC(N)=O)C(=O)N[C@@H](CC(=O)O)C(=O)N[C@@H]1C(=O)NCC(=O)N[C@@H](CCCN)C(=O)N[C@@H](CC(=O)O)C(=O)N[C@H](C)C(=O)N[C@@H](CC(=O)O)C(=O)NCC(=O)N[C@H](CO)C(=O)N[C@@H]([C@H](C)CC(=O)O)C(=O)N[C@@H](CC(=O)c2ccccc2N)C(=O)O[C@@H]1C [daptomycin] here?
Answer: The MIC was 8 µg/mL.

Question: And the MIC ([1]; 48 hours exposure)?
Answer: The MIC was 8 µg/mL.

Question: And the MIC ([2]; single compound, 24 hours exposure, read-out: MIC)?
Answer: Its MIC is 4 µg/mL.

Question: And the MIC ([2]; single compound, 48 hours exposure, read-out: MIC)?
Answer: Its MIC is 8 µg/mL.

Question: And the MIC ([3]; ATCC29213, single compound, 24 hours exposure, read-out: MIC)?
Answer: Its MIC is 2 µg/mL (≈ 1.23 µM).

Question: And the MIC ([3]; ATCC29213, single compound, 48 hours exposure, read-out: MIC)?
Answer: The MIC was 2 µg/mL (≈ 1.23 µM).

Question: With rhamnolipids as the compound, how does the “acute oral toxicity LD50” value [4] read?
Answer: The value was over 5000 mg/kg.

Question: And the “acute dermal toxicity LD50” value [5]?
Answer: Its value is over 5000 mg/kg.

Question: With CN[C@H](CC(C)C)C(=O)N[C@H]1C(=O)N[C@@H](CC(N)=O)C(=O)N[C@H]2C(=O)N[C@H]3C(=O)N[C@H](C(=O)N[C@H](C(=O)O)c4cc(O)cc(O)c4-c4cc3ccc4O)[C@H](O)c3ccc(c(Cl)c3)Oc3cc2cc(c3O[C@@H]2O[C@H](CO)[C@@H](O)[C@H](O)[C@H]2O[C@H]2C[C@](C)(N)[C@H](O)[C@H](C)O2)Oc2ccc(cc2Cl)[C@H]1O [vancomycin] as the compound, how does the MIC for vancomycin [6] read?
Answer: Its MIC for vancomycin is at least 16 µg/mL.

Question: And the MIC ([2]; 24 h)?
Answer: The MIC was 8 µg/mL.

Question: And the MIC ([2]; 48 h)?
Answer: Its MIC is 8 µg/mL.

Question: And the MIC ([3]; ATCC29213, 24 h)?
Answer: Its MIC is 2 µg/mL (≈ 1.38 µM).

Question: What about the MIC ([3]; ATCC29213, 48 h) of the same compound?
Answer: The MIC was 2 µg/mL (≈ 1.38 µM).
